SMILES strings stand for the structures. Where a SMILES comes first, the peptide text is derived from it.

Usually pKa stands for the negative logarithm of the acid dissociation constant. Lower therefore signals a group that gives up its proton readily. `S=c1[nH]c2ccccc2[nH]1`: the pKa (acidic group) is 10.2. On to `COc1cccc(C(=O)CCN2CCOCC2)c1`, for which the pKa (basic group) stood at 7.1.

Molecule `Oc1ccc(-c2nnn[nH]2)cc1` came in with a pKa (acidic group) of 4.28. As to `[S-]c1ncnc2ncncc12`, the pKa (basic group) came to 6.23. The molecule `O=C(O)c1cc([N+](=O)[O-])ccc1O` had a pKa (acidic group) of 2.15. Molecule `CC(=O)NCCN` displayed a pKa (basic group) of 9.28. Regarding `Nc1nc2nc[nH]c2c(N)[n+]1[O-]`, the pKa worked out at 9.7 (acidic group) and 3.7 (basic group). For the molecule `CN(C)CCN(C)CCN`, under “basic group”, the pKa stood at 9.88.

With `NC(=O)c1cccnc1`, the pKa stood at 13.5 (acidic group) and 3.32 (basic group). Turning to `Sc1cc[nH+]c2ccccc12`, the pKa (acidic group) amounted to 0.77. For the molecule `O=C(c1ccccc1)N(O)c1ccccc1`, the pKa is 7.87 (acidic group) and -2.08 (basic group). Molecule `c1ccc(CSc2ncn[nH]2)cc1` had a pKa (acidic group) of 9.5. In turn, `C=CC(=O)NC(C)(C)CCN(C)C` came in with a pKa (basic group) of 9.39. In the case of `CCN(CC)Cc1cc(Br)ccc1[O-]`, where the note is “basic group”, the pKa came to 10.7. Under “acidic group”, `[NH3+][C@H]1CCCC[C@@H]1C(=O)O` came in with a pKa of 3.59. Turning to `O=S(O)CCCc1ccccc1`, the pKa (acidic group) amounted to 2.05. Take `Cc1ccc(S(=O)(=O)NCCC(=O)[O-])cc1`: the pKa (acidic group) was 11.2.

With `CN(C)c1nc2ncncc2[nH]1`, the pKa (acidic group) came to 9.73 and the pKa (basic group) was found to be 4.8. In the case of `CNCC(=O)N(C)C`, the pKa (basic group) came out at 8.86.

Take `S=C(/N=N/c1ccc2ccccc2c1)NNc1ccc2ccccc2c1`: under “acidic group”, the pKa was 12.7. Under “acidic group”, `CC1=CC(=O)C=C(C)C1=NO` displayed a pKa of 8.04.

`O=C(NO)c1ccccn1` showed a pKa (acidic group) of 8.6.

For the molecule `COc1cccnc1`, the pKa (basic group) was 4.89.

Molecule `OCC1CN2CCC1CC2` (stereo not drawn) returned a pKa (basic group) of 10.6. The same measure, in the same setting: next, `CC1CCN(c2cc[nH+]cc2)CC1`: -0.56; `[NH3+]CCc1cccnc1`: 4.64; `Cc1cccc(C)c1N`: 3.84.

In turn, `Cc1ccn(C)c2nc3ccccc3c1-2` gave a pKa (basic group) of 8.35. Where the note is “basic group”, `Cc1cc(N)cc(C)c1[N+](=O)[O-]` came in with a pKa of 2.56. Take `c1[nH]c(Cc2c[nH]c(Cc3[nH]cc(Cc4c[nH]c[nH+]4)[nH+]3)n2)c[nH+]1`: the pKa (basic group) was determined as 3.58. With `CCN(CC)Cc1cc(F)ccc1O`, under “acidic group”, the pKa was 10.8.

The molecule `CC1=CC(C)=N/C1=C/c1[nH]c(C)cc1C` yielded a pKa (basic group) of 8.4. As to `c1ccc2c(c1)[nH]c1c2cc[n+]2cc3c(cc12)CCCC3`, the pKa (acidic group) turned out to be 10.6.

For the setting “basic group”, `C=C(C)C(=O)OC(C)CN(CC)CC` (stereo not drawn) had a pKa of 8.65.

Under “acidic group”, `Cc1nc(-c2ccccc2[S-])[nH]c1C` gave a pKa of 9. Take `CNCC(N)=O`: the pKa (acidic group) was found to be 8.35.

The molecule `O=C(c1ccccc1)c1cccc(O)c1` returned a pKa (acidic group) of 9. `Cc1ccccn1`: under “basic group”, the pKa amounted to 5.98.

Under “acidic group”, `CCCCCc1c(-c2ccccc2)n[nH]c1O` gave a pKa of 8.4. For the molecule `NCCC(=O)NCCc1c[nH]cn1`, for the setting “basic group”, the pKa is 9.21. Consider `NCCNCCc1ccccc1`, for which, where the note is “basic group”, the pKa worked out at 9.44. Turning to `CC(=O)/N=c1\sc(S(N)(=O)=O)nn1C`, under “acidic group”, the pKa stood at 7.3. As to `[S-]c1nccc[nH+]1`, the pKa (basic group) amounted to 1.3. Take `OC(O)=C(O)c1ccccc1`: the pKa (acidic group) was 6.39.

In turn, `NC(=S)C([NH3+])Cc1ccccc1` (stereo not drawn) came in with a pKa (basic group) of -8.63. On to `COCCNc1ccc(Cl)cc1`, for which the pKa (basic group) was 3.3. For the molecule `Nc1cccc2cccc(N)c12`, the pKa (basic group) stood at 4.6. Consider `Nc1nc(N)nc(N)n1`, for which the pKa (basic group) was 5.06. Still for that read-out and setting: the figure for `CCCCCNN` is 6.25.

Where the note is “acidic group”, `CC(C)C([NH3+])C(=O)O` (stereo not drawn) returned a pKa of 2.41. Consider `[S-]c1ncc2nccnc2n1`, for which the pKa (basic group) was found to be 6.52. For the molecule `[O-]c1nc(O)nn1-c1ccccc1`, where the note is “acidic group”, the pKa came to 12.2. Regarding `Nc1ccc(-c2ncc(-c3ccc(Cl)cc3)o2)cc1`, the pKa (basic group) turned out to be 2.87. For `CCOC(=O)CC(C)=O`, the pKa (acidic group) is 10.7. `N/C(=N\O)C(N)Cc1ccccc1` (stereo not drawn) showed a pKa (basic group) of 7.06. Still for that read-out and setting: next, `CNc1cccc2ccccc12`: 3.7. In turn, `Nc1cccc2[nH]c(Cc3ccccc3)nc12` displayed a pKa (basic group) of 8.6. In the case of `CCCP(=O)(CCC)CCC`, the pKa was 12.2 (acidic group) and 4.9 (basic group). Molecule `N#Cc1cc(-c2ccccc2)nnc1NCC[NH+]1CCOCC1` came in with a pKa (basic group) of 0.5. Under “basic group”, `Cc1cnc(C)c(C)[nH+]1` came in with a pKa of -3.6. Consider `CC(=O)c1ccccc1NN=C(C(=O)c1ccccc1)C(=O)c1ccccc1`, for which, for the setting “acidic group”, the pKa turned out to be 9.2. As to `CCOC(=O)Cc1ccccn1`, the pKa (basic group) came to 4.25. The same measure, in the same setting: the figure for `C#CC(C)(C(C)C)N(C)C(C)C` (stereo not drawn) is 8.7. Turning to `CCCCc1ccccc1N`, the pKa (basic group) stood at 4.26. As for `CC(C)N/C=N/c1ccc(-c2cncn2C)cc1`, the pKa (basic group) was determined as 8.83. Turning to `C[N+](C)(C)Cc1cccc(O)c1`, the pKa (acidic group) was determined as 8.89.

Where the note is “basic group”, `NCCCC#CC#CCCC(=O)[O-]` had a pKa of 9.94. `C[C@@H]([NH3+])C(=O)N1CCC[C@H]1C(=O)O` had a pKa (acidic group) of 3.04. Regarding `C[n+]1cccc2ccc(O)cc21`, the pKa (acidic group) was determined as 5.56.

`[NH3+]C1CCN(Cc2ccccc2)CC1` returned a pKa (basic group) of 7.05.

Under “acidic group”, `Cc1cc(C(=O)O)n[nH]1` came in with a pKa of 3.99. For `C[n+]1ccc2ccccc2c1S`, the pKa (acidic group) is -2.13. With `CCCCCCCCCCN(CCO)CC(O)CC` (stereo not drawn), the pKa (basic group) came to 7.2.

`CC1(C)[C@H]2CC[C@@]1(C)[C@@H](O)[C@H]2C(=O)O` registered a pKa (acidic group) of 2.05. In the case of `c1ccc(C2CN3CCC2CC3)cc1` (stereo not drawn), the pKa (basic group) came out at 10.2. The molecule `C[C@H]([NH3+])C(=O)N[C@@H](Cc1c[nH]c[nH+]1)C(=O)O` showed a pKa (acidic group) of 2.73. Take `Oc1ccc2cccc(-c3ccccc3)c2c1`: the pKa (acidic group) is 9.38. The molecule `N#CC(C#N)=C(Br)C(C#N)C#N` returned a pKa (acidic group) of 2.6.

As for `c1ccc2c(c1)CNCCC[NH2+]Cc1ccccc1OCCCO2`, the pKa (basic group) amounted to 7.89. In turn, `Nc1nc(N)nc([S-])n1` showed a pKa (acidic group) of 10.2 and a pKa (basic group) of 7.8.

As to `CC[C@]12CCCN3CC[C@@]4(c5cccc(OC)c5N[C@H]4CC1)[C@@H]32`, for the setting “basic group”, the pKa stood at 8.46.

The molecule `O=C([O-])[C@@H]1CCC[C@H](C(=O)[O-])N1` showed a pKa (basic group) of 9.92. For the setting “basic group”, `COc1nc(C)cc([O-])n1` showed a pKa of 8.4. The molecule `COCC1=C(C(=O)O)CC1` returned a pKa (acidic group) of 4.31. With `Cc1ccc(CN)cc1N`, the pKa (basic group) was 9.77. Molecule `O=C(O)CCc1cccs1` returned a pKa (acidic group) of 4.34. For `Cc1cc(N)nc(N)n1`, the pKa (basic group) was determined as 7.65.

Molecule `CN(C)CCC[NH+](C)C` gave a pKa (basic group) of 7.73.

With `NCCSCCN`, the pKa (basic group) came to 9.64.

`N#CCC[n+]1cccc(C(N)=O)c1.[Br-]`: for the setting “acidic group”, the pKa was determined as 13.2. Under “basic group”, `CSc1cccc2ncccc12` yielded a pKa of 4.5.

Molecule `NCCCCc1cccnc1` returned a pKa (basic group) of 10.2. For the molecule `Cn1c(=O)[nH]c(=O)c2[nH]cnc21`, the pKa is 8.49 (acidic group) and 0.78 (basic group). In turn, `CCN(CC)CCC(OC(=O)c1ccccc1)c1ccccc1` (stereo not drawn) yielded a pKa (basic group) of 7.53. `COc1ccc(-c2cn3ccsc3n2)c(OC)c1` displayed a pKa (basic group) of 4.67.

Molecule `Oc1ccccc1CN1CCOCC1` returned a pKa (acidic group) of 10.3 and a pKa (basic group) of 7.71. On to `O=C1[C@@H]2C[C@@H](CN3CCCC[C@@H]23)[C@H]2CCCCN12`, for which, for the setting “basic group”, the pKa was determined as 7.7. Molecule `Cc1cc(-c2cc(C)n(C)[nH+]2)nn1C` had a pKa (basic group) of -0.6.

`Cc1nc2cccc([N+](=O)[O-])c2c(NCCC[NH+](C)C)c1C` had a pKa (basic group) of 6.64. In turn, `Cc1ccc2c(c1)ncn2[C@H]1OC[C@H](O)[C@@H](O)[C@@H]1O` showed a pKa (basic group) of 4.17. As to `[NH3+]CCC(=O)N[C@@H](Cc1c[nH+]c[nH]1)C(=O)O`, the pKa (acidic group) was 2.63. As for `Cc1cnc2ccc(C)c([N+](=O)[O-])c2c1NCCC[NH+](C)C`, the pKa (basic group) stood at 6.07.

`c1ccc(NC2CCCC2)cc1` gave a pKa (basic group) of 5.3.

The molecule `CCC[NH+](CCC)CCCNC(=O)/C=N/O` displayed a pKa (acidic group) of 8.73. For the setting “acidic group”, `O=[N+]([O-])c1cc(-c2ccccc2)ccc1O` came in with a pKa of 6.73. `CCCNC(=O)[C@H](Cc1c[nH]c[nH+]1)NC(=O)c1cccc(CNCC[NH3+])n1` had a pKa (basic group) of 5.9. Take `C=CCc1ccc2cccnc2c1O`: the pKa is, setting by setting: (acidic group) 10.1; (basic group) 4.52. `Nc1cccc(C(=O)[O-])c1`: the pKa (basic group) was found to be 4.7. `O=C([O-])CN(CC(=O)O)Cc1cc(Cl)cc(C[NH+](CC(=O)[O-])CC(=O)O)c1O` gave a pKa (acidic group) of 2.2.

Regarding `O=C1O[C@@H]([C@H](O)[C@@H](O)[C@@H](O)CO)C([O-])=C1O`, the pKa (acidic group) stood at 12. With `NCC(=O)N[C@@H](Cc1c[nH]cn1)C(=O)[O-]` (H-Gly-His-OH), the pKa (basic group) was found to be 8.14. Molecule `C[NH+](C)c1ccc(/C=C/c2cc[n+](O)cc2)cc1` had a pKa (acidic group) of 1.05.

For the molecule `C[C@H](N)[C@@H](C)N`, the pKa (basic group) came out at 9.88.

`CC(=O)NOC(C)=O` showed a pKa (acidic group) of 6.81. On to `O=S1(=O)C=C(O)c2ccccc21`, for which the pKa (acidic group) worked out at 7.65. `CCOC(=O)c1cccnc1` came in with a pKa (basic group) of 3.2. For `c1ccc2c(c1)nnc1ccccc12`, the pKa (basic group) stood at 2.2. `Cc1nc2c(n1C)C(=O)c1[nH]c(=O)[nH]c(=O)c1C2=O` had a pKa (acidic group) of 5.82. The molecule `C[NH+](C)CC(P(=O)([O-])O)P(=O)([O-])O` had a pKa (acidic group) of 5.75. As for `CC(=O)Nc1ccc2nc3ccccc3cc2c1`, the pKa (basic group) stood at 4.7. As for `Cn1ncc2c(Nc3ccccc3)ncnc21`, the pKa (basic group) is 3.53. `Cc1nc[nH]c1C`: the pKa (basic group) came out at 8.19. `NCc1ccccc1`: the pKa (basic group) was 9.36. For the molecule `Nc1cccnc1`, the pKa (basic group) amounted to 6.08. `Cc1ccnc(N)c1` showed a pKa (basic group) of 7.48. As for `CC(O)CN(CCCN1CCOCC1)CC(C)O` (stereo not drawn), the pKa (basic group) came to 8.4. `CN1CCC[NH+](C)Cc2ccccc2OCCOc2ccccc2C1` gave a pKa (basic group) of 7.92. Where the note is “basic group”, `C=C(C)C(=O)OCCN` registered a pKa of 8.7. Regarding `O=C(O)c1cccc(Oc2ccccc2)c1`, for the setting “acidic group”, the pKa amounted to 3.95. Regarding `CCSC(O)O`, the pKa (acidic group) amounted to 11.5. For the setting “acidic group”, `Cc1[nH]c2ccccc2c1CC(=O)O` registered a pKa of 4.67. On to `Cc1ncc[nH+]c1C`, for which the pKa (basic group) is -4.17.

With `CC(C)(C)CC(=O)n1cnc(Br)c1`, for the setting “basic group”, the pKa stood at 4. Still for that read-out and setting: the figure for `NCC(F)F` is 7.09.

The values above are taken from the pKa sets of Baltruschat and Czodrowski (2020).
